Measured values published in patent US20080267882A1, “Imaging compounds, methods of making imaging compounds, methods of imaging, therapeutic compounds, methods of making therapeutic compounds, and methods of therapy” (Stanford University, priority 2007, published 2008).

Legend:
[1] = literature; cited from earlier work
in vivo [2] = conditions: female, athymic nude, mouse, iv, total radioactivity
In short: (§1)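 microPET of U87MG-bearing mice after tail-vein injection of about 3.7 MBq ^18F-labelled RGD tracer under isoflurane; 30-min dynamic scan from 1 min p.i. plus 5-min static scans at 1–3 h. Tumour ROIs on decay-corrected coronal images, OSEM reconstruction without attenuation or scatter correction, converted to %ID/g.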

in vivo [3] = conditions: c-neu oncomouse (MMTV/c-neu transgenic), mouse, iv, total radioactivity
Experimental: All animal experiments were performed under a protocol approved by Stanford's Administrative Panel on Laboratory Animal Care. […] The c-neu oncomouse (Charles River Laboratories, Charles River, Canada) is a spontaneous tumor-bearing model that carries an activated c-neu oncogene driven by a mouse mammary tumor virus (MMTV) promoter (Cell 1988;54:105-115, which is incorporated herein by reference for the corresponding discussion). Transgenic mice uniformly expressing the MMTV/c-neu gene develop mammary adenocarcinomas between 4 and 8 months postpartum that involve the entire epithelium in each gland. […] Each mouse was tail-vein injected with about 3.7 MBq (100 μCi) of ^18[…]2 under isoflurane anesthesia. The 30-min dynamic scan (1×30 s, 4×1 min, 1×1.5 min, 4×2 min, 1×2.5 min, 4×3 min, total of 15 frames) was started 1 min after injection. Five min static PET images were also acquired at 1 h and 2 h post-injection (p.i.). The images were reconstructed by a 2-dimensional ordered-subsets expectation maximum (OSEM) algorithm and no correction was applied for attenuation or scatter. […] Animal procedures were performed according to a protocol approved by the Stanford University Institutional Animal Care and Use Committee. […] The c-neu oncomouse (Charles River Laboratories, Charles River, Canada) is a spontaneous tumor-bearing model that carries an activated c-neu oncogene driven by a mouse mammary tumor virus (MMTV) promoter (Cell. 1988;54:105-115, which is incorporated herein by reference for the corresponding discussion). Transgenic mice uniformly expressing the MMTV/c-neu gene develop mammary adenocarcinomas between 4 and 8 months postpartum that involve the entire epithelium in each gland. […] PET scans and image analysis were performed using a microPET R4 rodent model scanner (Siemens Medical Solutions) as previously reported. […] Five min static PET images were also acquired at 1, 2, and 3 h p.i. The images were reconstructed by 2-dimensional ordered-subsets expectation maximum (OSEM) algorithm. No attenuation or scatter correction was applied. […] The 5-min static PET scans was then acquired at 30 min and 1 h p.i. […] Animal procedures were performed according to a protocol approved by Stanford University Institutional Animal Care and Use Committee. […] Transgenic mice uniformly expressing the MMTV/c-neu gene develop mammary adenocarcinomas (4 to 8 months postpartum) that involve the entire epithelium in each gland. […] Five minute static scans were acquired at 30 min, 1 h, 2 h, 6 h, and 20 h p.i. […] The radioactivity concentration (accumulation) within a tumor was obtained from the maximum value within the multiple ROIs and then converted to % ID/g.

in vivo [4] = conditions: female, athymic nude, mouse, total radioactivity
Experimental: All mice were sacrificed and dissected at 20 h post-injection (p.i.) of the tracer. Blood, U87MG tumor, major organs and tissues were collected and wet weighed. The radioactivity in the tissue was measured using a γ-counter (Packard). The results were presented as percentage injected dose per gram of tissue (% ID/g).

[5] = system: rat myocardial infarction; test: microPET imaging of rat myocardial infarction; assay type: in vivo; conditions: scan 1 h after injection
Text: Induction of MI was done as previously described by our laboratory. Adult female Sprague-Dawley rats (weight 150-200 g; Charles River Laboratories, Wilmington, Mass.) were used for this study. […] The anesthesia was then maintained with isoflurane (2%). MI was induced by ligation of the left anterior descending coronary artery 2 to 3 mm from the tip of the left auricle with a 7-0 polypropylene suture. […] In the sham operated animals, a suture was placed in the myocardium (without ligating the left coronary artery). Animals were anesthetized with isofluorane (2%) and injected with approximately 1 mCi (37 MBq) of ^64Cu-DOTA-[…]2) via the tail vein and allowed to recover. […] At the time of scanning, animals were anesthesized with isofluorane (2%) and prone positioned on the microPET Concorde R4 rodent model scanning gantry (Siemens A G, Malvern, Pa.). The scanner has a computer-controlled bed and 10.8-cm transaxial and 8-cm axial fields of view (FOV). […] It has no septa and operates exclusively in the 3-dimensional list mode. A 15 minute static acquisition was performed with the mid thorax in the center of the field of view (FOV), and images reconstructed using a filtered back projection algorithm.

U87MG tumor-bearing mice = test: in vivo; conditions: mouse
In short: as §1

[6] = mouse, in vivo
Experimental: A U87MG tumor mouse was intravenously injected with 3.7 MBq of ^18F-FPRGD2. At 1 h after injection, the mouse was sacrificed, the blood, urine, liver, kidneys, and the U87MG tumor were collected and metabolite analysis was carried out as previously reported (J Nucl Med 2006;47: 113-121 and J Nucl Med 2006;47:1172-1180, each of which is incorporated herein by reference for the corresponding discussion). In brief, blood sample was immediately centrifuged for 5 min at 13,200 rpm. Other tissues were homogenized and then centrifuged for 5 min at 13,200 rpm. The supernatant was each passed through a C18 Sep-Pak cartridge. The urine sample was directly diluted with 1 mL of PBS and passed through a C18 Sep-Pak cartridge. The cartridges were each washed with 2 mL of water and eluted with 2 mL of ACN containing 0.1% TFA. The ACN eluent was concentrated and injected onto the analytical HPLC. The eluent was collected with a fraction collector (0.5 min/fraction) and the radioactivity of each fraction was measured with the γ-counter.
The metabolic stability of ^18F-FPTA-RGD2 was evaluated in an athymic nude mouse bearing a U87MG tumor. Sixty min after intravenous injection of 2 MBq of ^18F-FPTA-RGD2, the mouse was sacrificed and relevant organs were harvested. The blood was collected and immediately centrifuged for 5 min at 13,200 rpm. Liver, kidneys and tumor were homogenized and then centrifuged for 5 min at 13,200 rpm. After removal of the supernatants, the pellets were washed with 1 mL PBS. For each sample, supernatants of both centrifugation steps of blood, liver, and kidneys were combined and passed through C18 Sep-Pak cartridges. The urine sample was directly diluted with 1 mL of PBS and passed through a C18 Sep-Pak cartridge. The cartridges were each washed with 2 mL of water and eluted with 2 mL of ACN containing 0.1% TFA. After evaporation of the solvent, the residues were redissolved in 1 mL PBS and were injected onto the analytical HPLC. The eluent was collected with a fraction collector (0.5 min/fraction) and the radioactivity of each fraction was measured with the γ-counter.

stroke rats (dMCAO) = test: microPET imaging of dMCAO stroke rats; assay type: in vivo, rat
Text: Anesthesia for Sprague-Dawley rats (290-350 g) was induced by 5% isoflurane and maintained by 2-3% isoflurane. A ventral midline incision was made and the two CCAs were isolated. Snares were placed around the CCAs and the animal was placed on its right side. A 2 cm vertical scalp incision was made midway between the left eye and ear. The temporalis muscle was bisected and a 2 mm burr hole was made at the junction of the zygomatic arch and squamous bone. The distal MCA was exposed and ligated above the rhinal fissure with a 10-0 suture. The CCA snares were tightened to occlude the CCAs for 2 h. In the permanent MCA occlusion model, both CCAs were then released, while the distal MCA remained occluded.

Compound | log stability constant [1] | tissue uptake at 2 h (in vivo [2]; 10 mg/kg, U87MG tumor uptake with blocking) | tissue uptake at 6 h (in vivo [2]; 9.3 MBq, U87MG tumor uptake) | tissue uptake at 20 h (in vivo [2]; 9.3 MBq, U87MG tumor uptake) | tissue uptake at 0.5 h (in vivo [2]; U87MG tumor uptake) | tissue uptake at 1 h (in vivo [2]; U87MG tumor uptake) | tissue uptake at 2 h (in vivo [2]; U87MG tumor uptake) | tissue uptake at 20 h (in vivo [3]; 9.3 MBq) | tissue uptake at 1 h (in vivo [3]) | tissue uptake at 20 h (in vivo [4]) | myocardial tracer uptake after MI induction [5] | residence time for kidneys (U87MG tumor-bearing mice) | defluoridation [6] | extraction efficiency (radioactivity in the supernatant) [6] | non-retained fraction (activity not trapped on C18 cartridges) [6] | microPET signal in wound and stroke lesion (stroke rats (dMCAO); day 1 after dMCAO) | microPET signal in wound and stroke lesion (stroke rats (dMCAO); day 9 after dMCAO)
O=C([O-])CN1CCN(CC(=O)[O-])CCN(CC(=O)[O-])CC1.[Ga+3] [Ga-NOTA] | 30.98 |  |  |  |  |  |  |  |  |  |  |  |  |  |  |  | 
N=C(N)NCCC[C@@H]1NC(=O)[C@H](CCCCNC(=O)CC[C@H](NC(=O)CC[C@H](NC(=O)CN2CCN(CC(=O)O)CCN(CC(=O)O)CCN(CC(=O)O)CC2)C(=O)N[C@@H](CCC(=O)NCCCC[C@@H]2NC(=O)[C@@H](Cc3ccc(O)cc3)NC(=O)[C@H](CC(=O)O)NC(=O)CNC(=O)[C@H](CCCNC(=N)N)NC2=O)C(=O)NCCCC[C@@H]2NC(=O)[C@@H](Cc3ccc(O)cc3)NC(=O)[C@H](CC(=O)O)NC(=O)CNC(=O)[C@H](CCCNC(=N)N)NC2=O)C(=O)NCCCC[C@@H]2NC(=O)[C@@H](Cc3ccc(O)cc3)NC(=O)[C@H](CC(=O)O)NC(=O)CNC(=O)[C@H](CCCNC(=N)N)NC2=O)NC(=O)[C@@H](Cc2ccc(O)cc2)NC(=O)[C@H](CC(=O)O)NC(=O)CNC1=O [^64Cu-DOTA-RGD tetramer, ^64Cu-DOTA-E{E[c(RGDyK)]2}2, metal not drawn] |  | 2.2 ± 0.1 %ID/g | 7.7 ± 1.6 %ID/g | 6.4 ± 0.7 %ID/g | 10.3 ± 1.6 %ID/g | 9.6 ± 1.4 %ID/g | 8.6 ± 1 %ID/g | 3.6 ± 0.4 %ID/g | 4.4 ± 0.9 %ID/g | 5 ± 0.7 %ID/g | occurs in areas supplied by the ligated coronary artery |  |  |  |  |  | 
^18F-FB-mini-PEG-E[c(RGDyK)]2 [^18F-FPRGD2] |  |  |  |  |  |  |  |  |  |  | significant increase in uptake | 0.016 h | No defluoridation was observed | 75-95% | less than 30% | Both wound and the lesion were detectable at day 1 | the signal in the lesion reflecting angiogenesis is remained
